Measurements published in patent US20060069132A1, “Azolecarboxamide herbicides” (priority 2004, published 2006).
Read-outs that look alike come from different tables or passages of the source.

Tests used:
[1] = test system: blackgrass; assay: Test B postemergence herbicide test; type: in vivo, Alopecurus myosuroides; details: Postemergence, 500 g ai/ha; visual rating after 13 to 15 days, scale 0 (no effect) to 100 (complete control)
Procedure, shortened: (§1)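 After treating 2-leaf paddy plants or 2–18 cm postemergence plants (1 to 4 leaves) with formulated chemical, researchers kept them in a greenhouse for 13–15 days. Effects were judged visually versus controls: 0 indicates none, 100 total control.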

[2] = test system: lambsquarters; assay: Test B pre-/postemergence herbicide test; type: in vivo, Chenopodium album; details: Chenopodium album, 336 h; for pest or weed control at 500 g/ha: 500 g ai/ha; for pest or weed control at 125 g/ha: 125 g ai/ha
Procedure, shortened: (§2)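 Pre: seeds sown, then sprayed. Post: 1–4-leaf plants (2–18 cm) sprayed at the same time. Paddy: flooded, treated at 2-leaf stage. Formulation: non-phytotoxic solvent with surfactant. Greenhouse 13–15 days; visual 0–100 score relative to controls.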

[3] = test system: velvetleaf; assay: Test B pre-/postemergence herbicide test; type: in vivo, Abutilon theophrasti; details: Abutilon theophrasti, 336 h; for pest or weed control at 500 g/ha: 500 g ai/ha; for pest or weed control at 125 g/ha: 125 g ai/ha
Procedure, shortened: as §2

[4] = test system: Surinam grass; assay: Test B pre-/postemergence herbicide test; type: in vivo, Urochloa decumbens; details: Urochloa decumbens; for pest or weed control at 500 g/ha: 500 g ai/ha; for pest or weed control at 125 g/ha: 125 g ai/ha
Procedure, shortened: as §2

[5] = test system: barnyardgrass; assay: Test B flooded paddy test; type: in vivo, Echinochloa crus-galli; details: Echinochloa crus-galli, 336 h, 1000 g ai/ha, visual rating, scale 0 to 100 (0 no effect, 100 complete control), 13 to 15 days, read-out: Barnyardgrass plant response rating
Procedure, shortened: as §1

[6] = test system: wheat; assay: Test B postemergence herbicide test; type: in vivo, Triticum aestivum; details: scale 0 (no effect) to 100 (complete control)
Procedure, shortened: (§3)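 Treated at 2-leaf (paddy) or 1–4-leaf, 2–18 cm (postemergence); greenhouse 13–15 d; visual score vs control, 0 none to 100 complete control; dash = not tested.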

[7] = test system: wild oat; assay: Test B postemergence herbicide test; type: in vivo, Avena fatua; details: scale 0 (no effect) to 100 (complete control)
Procedure, shortened: as §3

[8] = test system: ducksalad; assay: Test B flooded paddy test; type: in vivo, Heteranthera limosa; details: Heteranthera limosa, 336 h, 1000 g ai/ha, visual rating, scale 0 to 100 (0 no effect, 100 complete control), 13 to 15 days, read-out: Ducksalad plant response rating
Procedure, shortened: as §1

[9] = test system: rice; assay: Test B flooded paddy test; type: in vivo, Oryza sativa; details: Oryza sativa, 336 h, 1000 g ai/ha, visual rating, scale 0 to 100 (0 no effect, 100 complete control), 13 to 15 days, read-out: Rice plant response rating
Procedure, shortened: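 Plants grow to 1- to 4-leaf stage (2–18 cm) for postemergence spraying, or to 2-leaf stage for the paddy test. Formulated compound is applied. Greenhouse holding lasts 13–15 days. Response is scored visually relative to controls, 0 no effect to 100 complete control; a dash means no result.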

[10] = test system: pigweed; assay: Test B pre-/postemergence herbicide test; type: in vivo, Amaranthus retroflexus; details: Amaranthus retroflexus, 336 h; for pest or weed control at 500 g/ha: 500 g ai/ha; for pest or weed control at 125 g/ha: 125 g ai/ha
Procedure, shortened: as §2

[11] = test system: cocklebur; assay: Test B pre-/postemergence herbicide test; type: in vivo, Xanthium strumarium; details: Xanthium strumarium; for pest or weed control at 500 g/ha: 500 g ai/ha; for pest or weed control at 125 g/ha: 125 g ai/ha
Procedure, shortened: (§4)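 Flooded paddy rice and barnyardgrass were treated at the 2-leaf stage; upland plantings received compound either on sown seed or on 1- to 4-leaf seedlings. All were kept 13–15 days in a greenhouse and scored visually, 0–100, relative to untreated plants.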

[12] = test system: small flower umbrella sedge; assay: Test B flooded paddy test; type: in vivo, Cyperus difformis; details: Cyperus difformis, 336 h, 1000 g ai/ha, visual rating, scale 0 to 100 (0 no effect, 100 complete control), 13 to 15 days, read-out: Sedge, Umbrella plant response rating
Procedure, shortened: as §1

[13] = test system: corn; assay: Test B pre-/postemergence herbicide test; type: in vivo, Zea mays; details: Zea mays
Procedure, shortened: as §2

[14] = test system: large crabgrass; assay: Test B pre-/postemergence herbicide test; type: in vivo, Digitaria sanguinalis; details: Digitaria sanguinalis; for pest or weed control at 500 g/ha: 500 g ai/ha; for pest or weed control at 125 g/ha: 125 g ai/ha
Procedure, shortened: as §2

[15] = test system: barnyardgrass; assay: Test B pre-/postemergence herbicide test; type: in vivo, Echinochloa crus-galli; details: Echinochloa crus-galli; for pest or weed control at 500 g/ha: 500 g ai/ha; for pest or weed control at 125 g/ha: 125 g ai/ha
Procedure, shortened: as §4

[16] = test system: morningglory; assay: Test B pre-/postemergence herbicide test; type: in vivo, Ipomoea coccinea; details: Ipomoea, 336 h; for pest or weed control at 500 g/ha: 500 g ai/ha; for pest or weed control at 125 g/ha: 125 g ai/ha
Procedure, shortened: as §4

[17] = Postemergence, 500 g ai/ha, visual rating after 13 to 15 days

SMILES: CCn1nc(C(C)(C)C)cc1C(=O)Nc1cccc2c1CN(C)C2=O [Compound 55, N-(2,3-dihydro-2-methyl-1-oxo-1H-isoindol-4-yl)-3-(1,1-dimethylethyl)-1-ethyl-1H-pyrazole-5-carboxamide]
- Plant response rating, Blackgrass [1]: 10
- pest or weed control at 500 g/ha ([2]; post-emergence, Postemergence, visual rating after 13 to 15 days, scale 0 (no effect) to 100 (complete control), read-out: Plant response rating, Lambsquarters): 70%
- pest or weed control at 125 g/ha ([2]; post-emergence, postemergence, visual rating, scale 0 (no effect) to 100 (complete control), read-out: Lambsquarters plant response rating): 70%
- pest or weed control at 500 g/ha ([2]; pre-emergence, Preemergence, scale 0 to 100, read-out: Lambsquarters plant response rating): 100%
- pest or weed control at 125 g/ha ([2]; pre-emergence, preemergence, 0 to 100 scale, 0 is no effect, 100 is complete control, read-out: Plant response rating, Lambsquarters): 70%
- pest or weed control at 500 g/ha ([3]; post-emergence, Postemergence, visual rating after 13 to 15 days, scale 0 (no effect) to 100 (complete control), read-out: Plant response rating, Velvetleaf): 40%
- pest or weed control at 125 g/ha ([3]; post-emergence, postemergence, visual rating, scale 0 (no effect) to 100 (complete control), read-out: Velvetleaf plant response rating): 20%
- pest or weed control at 500 g/ha ([3]; pre-emergence, Preemergence, scale 0 to 100, read-out: Velvetleaf plant response rating): 30%
- pest or weed control at 125 g/ha ([3]; pre-emergence, preemergence, 0 to 100 scale, 0 is no effect, 100 is complete control, read-out: Plant response rating, Velvetleaf): 0%
- pest or weed control at 500 g/ha ([4]; post-emergence, Postemergence, visual rating after 13 to 15 days, scale 0 (no effect) to 100 (complete control), read-out: Plant response rating, Surinam Grass): 10%
- pest or weed control at 125 g/ha ([4]; post-emergence, postemergence, visual rating, scale 0 (no effect) to 100 (complete control), read-out: Surinam Grass plant response rating): 10%
- pest or weed control at 500 g/ha ([4]; pre-emergence, Preemergence, scale 0 to 100, read-out: Surinam Grass plant response rating): 80%
- pest or weed control at 125 g/ha ([4]; pre-emergence, preemergence, 0 to 100 scale, 0 is no effect, 100 is complete control, read-out: Plant response rating, Surinam Grass): 50%
- pest or weed control at 1000 g/ha [5]: 90%
- Plant response rating, Wheat [6, 17]: 10
- plant injury at 125 g/ha ([6]; Triticum aestivum, post-emergence, 336 h, postemergence, 125 g ai/ha, visual rating, read-out: Wheat plant response rating): 10%
- pest or weed control at 125 g/ha ([7]; Avena fatua, post-emergence, 336 h, postemergence, 125 g ai/ha, visual rating, read-out: Oat, Wild plant response rating): 10%
- Plant response rating, Oat, Wild [7, 17]: 20
- pest or weed control at 1000 g/ha [8]: 80%
- plant injury at 1000 g/ha [9]: 70%
- pest or weed control at 500 g/ha ([10]; post-emergence, Postemergence, visual rating after 13 to 15 days, scale 0 (no effect) to 100 (complete control), read-out: Plant response rating, Pigweed): 40%
- pest or weed control at 125 g/ha ([10]; post-emergence, postemergence, visual rating, scale 0 (no effect) to 100 (complete control), read-out: Pigweed plant response rating): 10%
- pest or weed control at 500 g/ha ([10]; pre-emergence, Preemergence, scale 0 to 100, read-out: Pigweed plant response rating): 100%
- pest or weed control at 125 g/ha ([10]; pre-emergence, preemergence, 0 to 100 scale, 0 is no effect, 100 is complete control, read-out: Plant response rating, Pigweed): 80%
- pest or weed control at 500 g/ha ([11]; post-emergence, Postemergence, visual rating after 13 to 15 days, scale 0 (no effect) to 100 (complete control), read-out: Plant response rating, Cocklebur): 40%
- pest or weed control at 125 g/ha ([11]; post-emergence, postemergence, visual rating, scale 0 (no effect) to 100 (complete control), read-out: Cocklebur plant response rating): 10%
- pest or weed control at 500 g/ha ([11]; pre-emergence, Preemergence, scale 0 to 100, read-out: Cocklebur plant response rating): 10%
- pest or weed control at 125 g/ha ([11]; pre-emergence, preemergence, 0 to 100 scale, 0 is no effect, 100 is complete control, read-out: Plant response rating, Cocklebur): 0%
- pest or weed control at 1000 g/ha [12]: 80%
- Corn plant response rating (crop injury, 0 = no effect, 100 = complete kill) at 500 g/ha ([13]; post-emergence, Postemergence, 500 g ai/ha, visual rating after 13 to 15 days, scale 0 (no effect) to 100 (complete control)): 30%
- plant injury at 125 g/ha ([13]; post-emergence, postemergence, 125 g ai/ha, visual rating, scale 0 (no effect) to 100 (complete control), read-out: Corn plant response rating): 20%
- plant injury at 500 g/ha ([13]; pre-emergence, Preemergence, 500 g ai/ha, scale 0 to 100, read-out: Corn plant response rating): 20%
- Corn plant response rating (crop injury, 0 = no effect, 100 = complete kill) at 125 g/ha ([13]; pre-emergence, preemergence, 125 g ai/ha, 0 to 100 scale, 0 is no effect, 100 is complete control): 0%
- pest or weed control at 500 g/ha ([14]; post-emergence, Postemergence, visual rating after 13 to 15 days, scale 0 (no effect) to 100 (complete control), read-out: Plant response rating, Crabgrass, Large): 10%
- pest or weed control at 125 g/ha ([14]; post-emergence, postemergence, visual rating, scale 0 (no effect) to 100 (complete control), read-out: Crabgrass, Large plant response rating): 10%
- pest or weed control at 500 g/ha ([14]; pre-emergence, Preemergence, scale 0 to 100, read-out: Crabgrass, Large plant response rating): 100%
- pest or weed control at 125 g/ha ([14]; pre-emergence, preemergence, 0 to 100 scale, 0 is no effect, 100 is complete control, read-out: Plant response rating, Crabgrass, Large): 90%
- pest or weed control at 500 g/ha ([15]; post-emergence, Postemergence, visual rating after 13 to 15 days, scale 0 (no effect) to 100 (complete control), read-out: Plant response rating, Barnyardgrass): 10%
- pest or weed control at 125 g/ha ([15]; post-emergence, postemergence, visual rating, scale 0 (no effect) to 100 (complete control), read-out: Barnyardgrass plant response rating): 10%
- pest or weed control at 500 g/ha ([15]; pre-emergence, Preemergence, scale 0 to 100, read-out: Barnyardgrass plant response rating): 100%
- pest or weed control at 125 g/ha ([15]; pre-emergence, preemergence, 0 to 100 scale, 0 is no effect, 100 is complete control, read-out: Plant response rating, Barnyardgrass): 80%
- pest or weed control at 500 g/ha ([16]; post-emergence, Postemergence, visual rating after 13 to 15 days, scale 0 (no effect) to 100 (complete control), read-out: Plant response rating, Morningglory): 10%
- pest or weed control at 125 g/ha ([16]; post-emergence, postemergence, visual rating, scale 0 (no effect) to 100 (complete control), read-out: Morningglory plant response rating): 10%
- pest or weed control at 500 g/ha ([16]; pre-emergence, Preemergence, scale 0 to 100, read-out: Morningglory plant response rating): 10%
- pest or weed control at 125 g/ha ([16]; pre-emergence, preemergence, 0 to 100 scale, 0 is no effect, 100 is complete control, read-out: Plant response rating, Morningglory): 0%
